Patent publication US8975246B2, “Bile acid or bile salt fatty acid conjugates” (Galmed Research and Development Ltd., priority 2001, dated 2015)

Columns and labels:
Type in all cases: in vivo
[1] = test system: Golden Syrian Male Hamsters; assay: Fatty liver histologic score, hamsters; conditions: Lithogenic diet 1 + BAFAC 150 mg/kg/day, 10 W
Description: The presence of fatty liver was evaluated by a pathologist unaware of the treatments, scoring coded slides in a blinded manner.
The scoring system was as follows:
Golden Syrian Male Hamsters (Anilab, Rehovot, Israel) […] weighing 90-110 gm were used. They were fed a lithogenic diet (No 1). Half of the animals were given in addition 150 mg/kg/day of 3β-arachidylamido-7α,12α-dihydroxy-5β-cholan-24-oic acid. The compound was given suspended in saline, by intragastric gavage. Control animals were similarly given saline only. After 10 weeks the animals were anesthetized and sacrificed. The liver and other organs were removed and placed in formaline for histologic examination.

human patients [2] = assay: Human study: change in adiponectin; set-up: Change in Adiponectin from Baseline, Mean / Change in Adiponectin from Baseline, Median / Change in Adiponectin from Baseline, Max: unit not given here; conditions: for Change in Adiponectin from Baseline, Max / Change in Adiponectin from Baseline, Mean / Change in Adiponectin from Baseline, Median / Change in Adiponectin from Baseline, Min: 3 months
Description: (§1) The effects of BAFACs on disorders associated with Fatty liver, insulin resistance and altered glucose metabolism were tested on 60 human patients. Experiments were subdivided to 2 dosage regimens: Aramchol 300 mg daily (high dose) and 100 mg daily (low dose) respectively for a total period time of 3 months. The Aramchol:placebo ratio is of 2:1 for the low dose arm, and 1:1 for the high dose arms.
(§2) The study period included a 3 month treatment period with Aramchol low dose, or Aramchol high dose, or placebo, and a one month follow-up period. Aramchol was given daily orally. During the treatment period, all patients attended periodic […] (at first month) and subsequently monthly study-center visits in order to assess safety and efficacy of the treatment.
The results are shown using two known in the art principle statistical evaluation on, Intention-To-Treat (ITT) and Per Protocol (PP) populations. The ITT principle asserts that the effect of a treatment policy can be best assessed by evaluation on the basis of the intention to treat a subject (i.e. the planned treatment regimen) rather than the actual treatment given. It has the consequence that subjects allocated to a treatment group should be followed up, assessed and analyzed as members of that group irrespective of their compliance to the planned course of treatment. […] Compliance covers such considerations as exposure to treatment, availability of measurements and absence of major protocol violations.

human patients [3] = assay: Human study: safety; conditions: Aramchol at 300 and 100 mg/d oral, 3 months, vs placebo
Description: as §1, §2
No changes in adverse events or in vital signs were observed between the groups.

Inbred C57J/L mice = assay: Liver lipid/protein ratio, mice on high fat lithogenic diet; conditions: BAFAC 150 mg/Kg daily by gavage, 5 weeks
Description: Inbred C57J/L mice, 4 weeks old and weighing approx. 20 gm (Jackson Lab. Maine, USA) were used. They were fed for 5 weeks a high fat lithogenic diet consisting of: Cholesterol 1%, Cholic Acid 0.5%, lard 10%, butter 6%, palmitic acid 1.2% and corn oil 2% added (w/w) to their regular diet. In addition to the diet the animals were given daily, by gavage, either a BAFAC (150 mg/Kg) suspended in saline or an equal volume of saline only. The BAFACs were conjugates of cholic acid (at position 3) with either Palmitic Acid (C-16) or Arachidic Acid (C-20) or Behenic Acid (C-22) using an amide bond. The controls (n=5) received saline, the test animals received either the C-16 conjugate (n=5), the C-20 conjugate (n=5) or the C-22 conjugate (n=3). After 5 weeks, following an overnight fast, the animals were anesthetized using ketamine, the liver was removed, and the animals were sacrificed by ketamine overdose. A 0.5 gm sample of liver was homogenized in 5 ml of buffered saline. Liver lipids were extracted from the homogenate by the Folch method using chloroform:methanol (2:1, vol/vol). Half a ml of the homogenate were extracted in 5 ml of the Folch solution. After evaporation of the solvent the lipids were weighed and reevaporated several times until constant weight was obtained. The proteins were quantified in another aliquot of the homogenate according to the method of Bradford. (Bradford M. M., Annal Biochem. 1976, 72:248).
The lipid protein ratio (mg/mg) was calculated. The results for each group are given as means (+St. Dev.) The group values were: […]

Wistar male rats = assay: Fasting blood glucose, rats on regular or high fat diet; conditions: 4 weeks
Description: The effects of BAFACs on fasting blood glucose were tested in 3 animal species: Hamsters, Rats and Mice. The animals were kept on regular or high fat diets (as specified). In each group half of the animals received a daily BAFAC dose (150 mg/kg) dispersed in 0.5 ml of saline by gavage. The other half received similarly, by gavage, an equal volume of saline only. All animals were kept on a 12 hr day/night cycle at 22° C. throughout the experiment. They had access to water ad libidum.
Wistar male rats 4 weeks old (100-120 gm) were fed a regular chow diet or a high fat diet enriched with lard (10%), cholesterol (2.5%) and cholic acid (0.5%) (w/w). Blood and organ samples were obtained after sacrifice (in the fasting state) after 4 weeks of the trial. Half of the animals in each group were given BAFAC 150 mg/kg; the others were given an equal volume of saline. There were 7 rats in the control and test groups on a regular diet and 6 rats in each group given a high fat diet.
The hamsters and rats on the high fat diets developed fatty liver (confirmed by chemical measurement of liver fat), a high fasting blood glucose, and represented models of NIDDM.
ICR male mice, 4 weeks old (approx. 20 gm) were fed a regular diet. Streptozotocin 200 mg/kg was injected i.p. on the first day of the experiment. (This induced damage to the islet cells of the pancreas and simulated IDDM). […]

**Q.** How did the “Fatty Liver Scores: number of animals with score 0” value ([1]; n 7, 0 - No fatty liver) turn out when `CCCCCCCCCCCCCCCCCCCC(=O)N[C@H]1CC[C@@]2(C)[C@@H](C1)C[C@@H](O)[C@@H]1[C@@H]2C[C@H](O)[C@]2(C)[C@@H]([C@H](C)CCC(=O)O)CC[C@@H]12` [Aramchol, 3β-arachidylamido-7α,12α-dihydroxy-5β-cholan-24-oic acid] was run?
**A.** 6

**Q.** And the “Fatty Liver Scores: number of animals with score 2” value ([1]; n 7, 2 - Mild fatty liver)?
**A.** 1

**Q.** And the “Fatty Liver Score, mean” value ([1]; score 0 (no fatty liver) to 4 (severe, >50% of liver surface))?
**A.** 0.28

**Q.** And the “Change in Adiponectin from Baseline, Max” value (human patients [2]; Aramchol 100 mg/d oral, ITT)?
**A.** 11.1

**Q.** What about the “Change in Adiponectin from Baseline, Mean” value (“Change in Adiponectin … Mean” below) (human patients [2]; Aramchol 100 mg/d oral, ITT) of the same compound?
**A.** −3.4

**Q.** What about the “Change in Adiponectin from Baseline, Median” value (“Change in Adiponectin … Median” below) (human patients [2]; Aramchol 100 mg/d oral, ITT) of the same compound?
**A.** −2.7

**Q.** And the “Change in Adiponectin from Baseline, Min” value (human patients [2]; Aramchol 100 mg/d oral, ITT)?
**A.** −46.3

**Q.** What about the “Change in Adiponectin from Baseline, Max” value (human patients [2]; Aramchol 100 mg/d oral, PP) of the same compound?
**A.** 11.1

**Q.** What about the “Change in Adiponectin … Mean” value (human patients [2]; Aramchol 100 mg/d oral, PP) of the same compound?
**A.** −3.4

**Q.** And the “Change in Adiponectin … Median” value (human patients [2]; Aramchol 100 mg/d oral, PP)?
**A.** −2.3

**Q.** What about the “Change in Adiponectin from Baseline, Min” value (human patients [2]; Aramchol 100 mg/d oral, PP) of the same compound?
**A.** −46.3

**Q.** And the “Change in Adiponectin from Baseline, Max” value (human patients [2]; Aramchol 300 mg/d oral, ITT)?
**A.** 41.7

**Q.** What about the “Change in Adiponectin … Mean” value (human patients [2]; Aramchol 300 mg/d oral, ITT) of the same compound?
**A.** 1.8

**Q.** What about the “Change in Adiponectin … Median” value (human patients [2]; Aramchol 300 mg/d oral, ITT) of the same compound?
**A.** −1.3

**Q.** What about the “Change in Adiponectin from Baseline, Min” value (human patients [2]; Aramchol 300 mg/d oral, ITT) of the same compound?
**A.** −28.0

**Q.** And the “Change in Adiponectin from Baseline, Max” value (human patients [2]; Aramchol 300 mg/d oral, PP)?
**A.** 41.7

**Q.** And the “Change in Adiponectin … Mean” value (human patients [2]; Aramchol 300 mg/d oral, PP)?
**A.** 1.8

**Q.** What about the “Change in Adiponectin … Median” value (human patients [2]; Aramchol 300 mg/d oral, PP) of the same compound?
**A.** −1.3

**Q.** What about the “Change in Adiponectin from Baseline, Min” value (human patients [2]; Aramchol 300 mg/d oral, PP) of the same compound?
**A.** −28.0

**Q.** And the “levels of adiponectin (in words)” value (human patients [2]; Aramchol 300 mg/d, tested subjects, Tables 5 and 6)?
**A.** increases the levels of adiponectin

**Q.** What about the “Safety (adverse events, vital signs)” value (human patients [3]) of the same compound?
**A.** not associated with any safety concerns

**Q.** And the “lipid protein ratio in liver, mean (+St. Dev.)” value (Inbred C57J/L mice)?
**A.** 1.44 ± 1.18 mg/mg

**Q.** And the fasting blood glucose (Wistar male rats; high fat diet (fatty liver), BAFAC 150 mg/kg by gavage, vs saline)?
**A.** markedly reduced

**Q.** What about the blood glucose (Wistar male rats; normal (regular) diet, no hyperglycemia or fatty liver, BAFAC 150 mg/kg) of the same compound?
**A.** no effect
